The text below walks through data of article PMC6151650, “The Native Fruit Geoffroea decorticans from Arid Northern Chile: Phenolic Composition, Antioxidant Activities and In Vitro Inhibition of Pro-Inflammatory and Metabolic Syndrome-Associated Enzymes” (Molecules : A Journal of Synthetic Chemistry and Natural …, 2017).

Assay [1] in a line: Ferric-reducing antioxidant power (FRAP) assay. To be noted: Trolox equivalents. As for the experimental part:
(§1) The ferric-reducing antioxidant power (FRAP) assay was carried out according to a previously described method. The cupric-reducing antioxidant capacity (CUPRAC) assay was performed according to literature. Results are expressed as mmoles Trolox equivalents/kg PEE. Catechin was used as a positive control in both assays.

The next assay is described as follows: DPPH discoloration assay. As for the experimental part:
(§2) The scavenging capacity of the G. decorticans PEEs was evaluated against the free radicals DPPH and superoxide anion. The discoloration of the DPPH radical was carried out according to literature. The scavenging of the superoxide anion was evaluated following a previously described method. Results are presented as the amount of extract that is able to scavenge 50% of the radicals (SC50, μg PEE/mL).
For orientation: DPPH is a stable violet radical that fades when it is reduced.

Assay [2] can be described thus: Cupric-reducing antioxidant capacity (CUPRAC) assay. Particulars: Trolox equivalents. The method, then: as §1
The nature of assay [3]: Scavenging of superoxide anion generated by xanthine oxidase. Format: biochemical. The method, then:
The superoxide anion generated by xanthine oxidase can be scavenged by polyphenols. In this assay, the flavonol catechin was used as a positive control, showing a SC50 of 8.7 ± 0.1 μg/mL. All G. decorticans fruit PEEs were able to scavenge the superoxide anion, with SC50 values between 14.5–44.2 μg/mL, with the exception of the sample from El Transito II that only scavenged 45.1% the radical at 50 μg/mL.
as §2

A further assay concerns the target T1, COX-1 (Ovis aries, UniProt P05979).
T1 construct: purchased Cayman Chemical 560131
T1 sequence (P05979 25-600): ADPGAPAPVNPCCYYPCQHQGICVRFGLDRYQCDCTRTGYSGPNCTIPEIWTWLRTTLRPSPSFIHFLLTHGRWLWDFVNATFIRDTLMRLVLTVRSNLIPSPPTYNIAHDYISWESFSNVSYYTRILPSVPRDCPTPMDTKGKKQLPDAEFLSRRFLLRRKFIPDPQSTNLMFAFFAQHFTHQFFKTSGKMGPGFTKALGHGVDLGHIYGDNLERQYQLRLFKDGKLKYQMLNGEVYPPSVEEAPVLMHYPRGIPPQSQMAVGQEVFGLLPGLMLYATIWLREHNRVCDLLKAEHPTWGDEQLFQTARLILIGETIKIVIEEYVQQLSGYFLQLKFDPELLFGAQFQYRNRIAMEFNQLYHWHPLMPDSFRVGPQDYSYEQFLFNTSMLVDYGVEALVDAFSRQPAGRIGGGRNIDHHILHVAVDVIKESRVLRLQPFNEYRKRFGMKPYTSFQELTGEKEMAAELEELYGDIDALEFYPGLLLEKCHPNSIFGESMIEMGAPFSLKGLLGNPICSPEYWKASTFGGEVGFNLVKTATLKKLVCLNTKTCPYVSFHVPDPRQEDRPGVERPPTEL
The experiment in a line: Cyclooxygenase inhibition, commercial kit (COX-1). It is filed as biochemical. To be noted: at 50 μg/mL. The method, then: COX inhibitory activity was determined using a commercial kit (560131, Cayman Chemical, Ann Arbor, MI, USA). Enzyme and samples (50 μg PEE/mL) were pre-incubated during 10 min and then arachidonic acid was added. The reaction was conducted for exactly 2 min at 37 °C and halted in boiling water for 5 min. […] Results were expressed as a percentage of inhibition of PGF2α production. The commercial anti-inflammatory compound nimesulide was included as the reference compound [4].

A further assay deals with T2, COX-2 (Homo sapiens, UniProt P35354).
T2 construct: purchased Cayman Chemical 560131
T2 sequence (P35354 18-604): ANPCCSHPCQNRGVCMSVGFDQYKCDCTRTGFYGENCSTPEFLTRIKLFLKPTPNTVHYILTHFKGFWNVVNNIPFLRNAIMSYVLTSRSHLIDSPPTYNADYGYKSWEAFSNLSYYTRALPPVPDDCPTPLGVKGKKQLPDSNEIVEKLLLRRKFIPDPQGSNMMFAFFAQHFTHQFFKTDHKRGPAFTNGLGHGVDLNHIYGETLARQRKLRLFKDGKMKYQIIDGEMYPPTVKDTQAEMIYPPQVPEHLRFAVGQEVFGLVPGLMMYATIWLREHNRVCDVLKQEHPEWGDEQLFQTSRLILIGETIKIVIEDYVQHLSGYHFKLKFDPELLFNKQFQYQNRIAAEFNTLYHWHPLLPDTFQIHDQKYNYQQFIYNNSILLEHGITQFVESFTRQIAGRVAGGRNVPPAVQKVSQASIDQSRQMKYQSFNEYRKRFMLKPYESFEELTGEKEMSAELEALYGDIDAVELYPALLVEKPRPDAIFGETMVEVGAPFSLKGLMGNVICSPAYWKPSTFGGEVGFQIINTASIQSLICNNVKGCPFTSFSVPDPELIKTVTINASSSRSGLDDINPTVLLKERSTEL
The experiment in a line: Cyclooxygenase inhibition, commercial kit (COX-2). It is filed as biochemical. Particulars: read-out: COX-2% Inhibition. The method, then: Enzyme and samples (50 μg PEE/mL) were pre-incubated during 10 min and then arachidonic acid was added. The reaction was conducted for exactly 2 min at 37 °C and halted in boiling water for 5 min. […] Results were expressed as a percentage of inhibition of PGF2α production.

Another assay concerns the target T3, sPLA2 (Homo sapiens, UniProt P39877).
T3 construct: purchased Cayman Chemical 10004883
T3 sequence (P39877 21-138): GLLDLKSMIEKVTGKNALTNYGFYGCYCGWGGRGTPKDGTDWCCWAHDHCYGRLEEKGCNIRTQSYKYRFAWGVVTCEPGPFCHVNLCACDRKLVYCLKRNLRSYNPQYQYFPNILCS
The experiment in a line: Secretory phospholipase A2 inhibition, colorimetric kit. Particulars: read-out: sPLA2 % Inhibition. It is filed as biochemical. As for the experimental part:
The sPLA2 inhibitory activity was determined using a colorimetric kit (10004883, Cayman Chemical). Enzyme and samples (200–100 μg PEE/mL) were mixed, and then the substrate (diheptanoyl Thio-PC) was added, and incubated during 15 min at 25 °C. Then, DTNB (Ellman’s reagent) was added and absorbance was read at 415 nm. Results are expressed as a percentage of inhibition or IC50 (μg PEE/mL). Ursolic acid was used as the reference compound [37].

The target in another assay is porcine pancreas lipase. On the set-up: method as in PMID 28454959. To be noted: commercial polyphenol standards; cited from earlier work.

With `O.Oc1cc(O)c2c(c1)O[C@H](c1ccc(O)c(O)c1)[C@@H](O)C2` [Catechin], in assay [1], the FRAP is 5.4 ± 0.1 mmol TE/g PEE. Also, the “DPPH SC50” value in the assay “DPPH discoloration assay” (Table 1, fruit PEEs) came out at 11.4 ± 1.6 µg/mL; in the assay “DPPH discoloration assay” (Table 4, Diego de Almagro PEE and Sephadex LH-20 fractions), 11.4 ± 1.6 µg/mL. Further, the CUPRAC in assay [2] was 13.4 ± 0.3 mmol TE/g PEE. Moreover, the “O2 Scavenging SC50” value in assay [3] worked out at 8.7 ± 0.1 µg/mL.

With `CS(=O)(=O)Nc1ccc([N+](=O)[O-])cc1Oc1ccccc1` [Nimesulide], the inhibition at 50 µg/mL at COX-1 and at COX-2 was 100% each time. Turning to `C[C@H]1[C@H](C)CC[C@]2(C(=O)O)CC[C@]3(C)C(=CC[C@@H]4[C@@]5(C)CC[C@H](O)C(C)(C)[C@@H]5CC[C@]43C)[C@H]12` [Ursolic acid], the inhibition at 50 µg/mL on sPLA2 was determined as 26.7 ± 0.7%. Consider `O=C(O[C@@H]1Cc2c(O)cc(O)cc2O[C@@H]1c1cc(O)c(O)c(O)c1)c1cc(O)c(O)c(O)c1` [epigallocatechin gallate], for which the IC50 at porcine pancreas lipase was 391 µM. On to `Oc1cc(O)c2c(c1)O[C@H](c1cc(O)c(O)c(O)c1)[C@H](O)C2` [epigallocatechin], for which, on porcine pancreas lipase, the IC50 was 237 µM. In the case of `O=C(O)c1cc(O)c(O)c(O)c1` [gallic acid], the IC50 on porcine pancreas lipase was 387 µM.

The term inhibition denotes the relative decrease from the control value, in per cent. What is called IC50 is the concentration that gives 50% inhibition.
